Measured values published in ChEMBL document CHEMBL4431322, “Timosaponin AIII inhibits migration and invasion of A549 human non-small-cell lung cancer cells via attenuations of MMP-2 and MMP-9 by inhibitions of ERK1/2, Src/FAK and β-catenin signaling pathways” (2016).
Calls of active or inactive are those of the source. The rule behind the calls is not given here.

Legend:
A549 [1] = test: Cell cycle arrest in human A549 cells assessed as accumulation at G0/G1 phase at 9 uM after 24 hrs by flow cytometry (reference value: 66.5%); format: functional
A549 [2] = test: Cell cycle arrest in human A549 cells assessed as accumulation at S phase at 9 uM after 24 hrs by flow cytometry (reference value: 18.3%); format: functional
A549 [3] = test: Induction of apoptosis in human A549 cells assessed as dead cells at 9 uM after 24 hrs by flow cytometry (reference value: 0%); format: functional
[4] = biological target: Matrix metalloproteinase-9 (Homo sapiens) (UniProt P14780); test: Inhibition of MMP9 activity in human H1299 cells at 3 uM after 48 hrs by gelatin zymography; format: cell-based
[5] = biological target: Focal adhesion kinase 1 (Homo sapiens) (UniProt Q05397); test: Inhibition of FAK phosphorylation in human A549 cells at 3 to 9 uM after 24 hrs by Western blot analysis; format: cell-based
NCI-H1299 [6] = test: Antimigratory activity in human H1299 cells at 1 to 6 uM incubated for 24 hrs by wound healing assay; format: functional, cell-based
A549 [7] = test: Cell cycle arrest in human A549 cells assessed as accumulation at G2/M phase at 9 uM after 24 hrs by flow cytometry (reference value: 15.1%); format: functional
A549 [8] = test: Inhibition of cell invasion in human A549 cells at 1 to 3 uM after 24 hrs by Boyden's chamber transwell invasion assay; format: functional, cell-based
A549 [9] = test: Induction of apoptosis in human A549 cells assessed as late apoptotic cells at 9 uM after 24 hrs by flow cytometry (reference value: 7.9%); format: functional
NCI-H1299 [10] = test: Inhibition of MMP2 mRNA expression in human H1299 cells at 3 uM after 48 hrs by RT-PCR analysis; format: functional, cell-based
A549 [11] = test: Induction of apoptosis in human A549 cells assessed as live cells at 9 uM after 24 hrs by flow cytometry (reference value: 76.65%); format: functional
NCI-H1299 [12] = test: Inhibition of MMP9 mRNA expression in human H1299 cells at 3 uM after 48 hrs by RT-PCR analysis; format: functional, cell-based
A549 [13] = test: Induction of apoptosis in human A549 cells assessed as early apoptotic cells at 9 uM after 24 hrs by flow cytometry (reference value: 15.45%); format: functional
[14] = biological target: c-Jun N-terminal kinase, JNK (Homo sapiens) (UniProt P45983+P53779+P45984); test: Inhibition of JNK phosphorylation in human A549 cells at 3 to 9 uM after 24 hrs by Western blot analysis; format: cell-based
[15] = biological target: Proto-oncogene tyrosine-protein kinase Src (Homo sapiens) (UniProt P12931); test: Inhibition of c-Src phosphorylation in human A549 cells at 3 to 9 uM after 24 hrs by Western blot analysis; format: cell-based
A549 [16] = test: Cytotoxicity against human A549 cells assessed as cell survival up to 10 uM incubated for 24 hrs by CCK8 assay; format: functional
[17] = biological target: Matrix metalloproteinase-9 (Homo sapiens) (UniProt P14780); test: Inhibition of MMP9 activity in human A549 cells at 3 to 9 uM after 48 hrs by gelatin zymography; format: cell-based
A549 [18] = test: Inhibition of MMP2 mRNA expression in human A549 cells at 3 uM after 48 hrs by RT-PCR analysis; format: functional, cell-based
[19] = biological target: T1, Catenin beta-1 (Homo sapiens) (UniProt P35222); test: Inhibition of beta-catenin signalling in human A549 cells assessed as reduction in beta-catenin level at 3 to 9 uM after 24 hrs by Western blot analysis; format: cell-based
T1 sequence (whole entry): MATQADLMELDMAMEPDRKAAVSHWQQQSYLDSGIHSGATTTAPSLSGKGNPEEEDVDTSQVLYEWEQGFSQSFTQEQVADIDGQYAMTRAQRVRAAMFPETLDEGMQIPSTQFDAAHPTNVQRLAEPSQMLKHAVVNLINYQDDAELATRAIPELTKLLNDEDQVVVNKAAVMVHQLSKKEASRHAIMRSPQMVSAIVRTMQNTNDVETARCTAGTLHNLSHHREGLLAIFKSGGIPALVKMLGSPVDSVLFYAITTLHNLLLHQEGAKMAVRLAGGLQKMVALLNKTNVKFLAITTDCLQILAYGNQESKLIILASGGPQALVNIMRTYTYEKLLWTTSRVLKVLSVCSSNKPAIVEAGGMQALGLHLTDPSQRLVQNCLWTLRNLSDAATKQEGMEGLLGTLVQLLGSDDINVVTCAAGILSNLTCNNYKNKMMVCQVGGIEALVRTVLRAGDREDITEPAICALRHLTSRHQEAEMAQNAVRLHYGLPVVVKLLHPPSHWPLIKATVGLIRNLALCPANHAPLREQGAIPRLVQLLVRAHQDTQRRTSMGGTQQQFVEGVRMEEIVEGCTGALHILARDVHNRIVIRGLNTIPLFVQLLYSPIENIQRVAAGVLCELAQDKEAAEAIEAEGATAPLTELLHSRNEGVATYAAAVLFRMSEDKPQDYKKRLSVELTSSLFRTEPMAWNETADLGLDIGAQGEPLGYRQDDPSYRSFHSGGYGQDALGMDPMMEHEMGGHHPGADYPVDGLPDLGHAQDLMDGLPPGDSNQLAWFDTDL

[20] = biological target: Mitogen-activated protein kinase; ERK1/ERK2 (Homo sapiens) (UniProt P27361+P28482); test: Inhibition of ERK1/2 phosphorylation in human A549 cells after 24 hrs by Western blot analysis; format: cell-based
[21] = biological target: MAP kinase p38 (Homo sapiens) (UniProt O15264+Q15759+Q16539+P53778); test: Inhibition of p38 phosphorylation in human A549 cells at 3 to 9 uM after 24 hrs by Western blot analysis; format: cell-based
[22] = biological target: 72 kDa type IV collagenase (Homo sapiens) (UniProt P08253); test: Inhibition of MMP2 activity in human A549 cells at 3 to 9 uM after 48 hrs by gelatin zymography; format: cell-based
NCI-H1299 [23] = test: Inhibition of cell invasion in human H1299 cells at 1 to 3 uM after 24 hrs by Boyden's chamber transwell invasion assay; format: functional, cell-based
[24] = biological target: 72 kDa type IV collagenase (Homo sapiens) (UniProt P08253); test: Inhibition of MMP2 activity in human H1299 cells at 3 uM after 48 hrs by gelatin zymography; format: cell-based
A549 [25] = test: Inhibition of MMP9 mRNA expression in human A549 cells at 3 uM after 48 hrs by RT-PCR analysis; format: functional, cell-based
A549 [26] = test: Antimigratory activity in human A549 cells incubated for 24 hrs by wound healing assay; format: functional, cell-based

Matrix metalloproteinase-9 (Homo sapiens), sequence (P14780 whole entry): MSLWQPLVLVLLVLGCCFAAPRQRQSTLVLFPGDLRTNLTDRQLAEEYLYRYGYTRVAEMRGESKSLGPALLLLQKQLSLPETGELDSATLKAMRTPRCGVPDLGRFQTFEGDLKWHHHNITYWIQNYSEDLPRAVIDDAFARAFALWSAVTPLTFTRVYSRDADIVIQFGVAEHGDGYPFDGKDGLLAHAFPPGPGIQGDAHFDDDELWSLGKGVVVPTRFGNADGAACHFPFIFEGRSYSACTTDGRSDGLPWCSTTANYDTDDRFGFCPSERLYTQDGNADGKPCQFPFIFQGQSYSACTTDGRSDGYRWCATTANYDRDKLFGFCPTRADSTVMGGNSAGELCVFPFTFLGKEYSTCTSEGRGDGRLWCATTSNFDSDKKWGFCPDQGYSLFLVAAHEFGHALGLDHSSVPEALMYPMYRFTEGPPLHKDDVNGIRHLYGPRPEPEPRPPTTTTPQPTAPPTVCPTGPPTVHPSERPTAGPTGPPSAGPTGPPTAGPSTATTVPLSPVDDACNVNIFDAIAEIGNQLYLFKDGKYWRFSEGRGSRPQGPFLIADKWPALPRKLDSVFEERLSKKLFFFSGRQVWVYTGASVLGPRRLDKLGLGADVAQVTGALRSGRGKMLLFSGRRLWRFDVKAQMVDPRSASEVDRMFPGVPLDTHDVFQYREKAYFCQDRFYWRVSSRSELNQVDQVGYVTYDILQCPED
72 kDa type IV collagenase (Homo sapiens), sequence (P08253 110-660 limits assumed): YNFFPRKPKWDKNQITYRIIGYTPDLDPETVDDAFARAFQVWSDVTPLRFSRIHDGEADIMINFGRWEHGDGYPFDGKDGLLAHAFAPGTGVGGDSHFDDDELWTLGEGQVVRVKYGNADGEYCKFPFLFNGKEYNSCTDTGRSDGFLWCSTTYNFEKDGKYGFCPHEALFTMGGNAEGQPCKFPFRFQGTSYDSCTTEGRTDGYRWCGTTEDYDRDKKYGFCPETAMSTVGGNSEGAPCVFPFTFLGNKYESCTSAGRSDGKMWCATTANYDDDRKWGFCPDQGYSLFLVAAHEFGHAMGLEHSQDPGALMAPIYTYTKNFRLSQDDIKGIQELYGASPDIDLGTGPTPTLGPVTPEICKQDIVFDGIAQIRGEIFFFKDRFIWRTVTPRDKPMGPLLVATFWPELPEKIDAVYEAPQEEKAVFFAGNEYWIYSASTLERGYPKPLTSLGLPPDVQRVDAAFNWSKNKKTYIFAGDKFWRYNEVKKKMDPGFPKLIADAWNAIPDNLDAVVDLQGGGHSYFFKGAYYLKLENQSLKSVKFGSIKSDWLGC
Focal adhesion kinase 1 (Homo sapiens), sequence (Q05397 2-1052 limits assumed): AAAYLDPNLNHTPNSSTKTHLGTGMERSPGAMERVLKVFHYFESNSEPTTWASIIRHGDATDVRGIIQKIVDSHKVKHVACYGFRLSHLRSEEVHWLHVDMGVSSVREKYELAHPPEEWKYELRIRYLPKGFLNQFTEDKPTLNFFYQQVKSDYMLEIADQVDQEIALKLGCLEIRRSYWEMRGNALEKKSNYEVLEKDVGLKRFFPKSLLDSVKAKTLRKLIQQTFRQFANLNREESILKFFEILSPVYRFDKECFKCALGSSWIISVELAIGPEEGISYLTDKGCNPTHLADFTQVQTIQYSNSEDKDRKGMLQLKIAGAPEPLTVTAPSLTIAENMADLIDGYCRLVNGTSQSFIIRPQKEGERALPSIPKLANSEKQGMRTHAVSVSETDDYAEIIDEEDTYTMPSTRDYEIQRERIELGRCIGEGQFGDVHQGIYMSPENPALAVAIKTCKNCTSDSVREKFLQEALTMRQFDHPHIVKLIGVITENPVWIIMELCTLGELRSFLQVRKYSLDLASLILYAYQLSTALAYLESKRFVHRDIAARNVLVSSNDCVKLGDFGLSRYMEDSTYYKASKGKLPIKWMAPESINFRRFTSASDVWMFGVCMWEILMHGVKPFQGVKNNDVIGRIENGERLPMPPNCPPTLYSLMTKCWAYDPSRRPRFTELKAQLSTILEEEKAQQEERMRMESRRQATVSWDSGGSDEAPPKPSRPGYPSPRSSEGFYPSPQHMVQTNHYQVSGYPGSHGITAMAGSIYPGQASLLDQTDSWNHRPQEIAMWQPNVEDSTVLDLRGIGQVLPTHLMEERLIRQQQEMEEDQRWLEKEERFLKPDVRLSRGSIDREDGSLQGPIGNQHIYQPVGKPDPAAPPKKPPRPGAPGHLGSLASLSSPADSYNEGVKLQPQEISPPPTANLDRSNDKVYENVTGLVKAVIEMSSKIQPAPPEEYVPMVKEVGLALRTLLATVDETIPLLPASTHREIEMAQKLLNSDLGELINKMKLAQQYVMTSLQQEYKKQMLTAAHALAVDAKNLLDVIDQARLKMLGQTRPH
Mitogen-activated protein kinase; ERK1/ERK2 (Homo sapiens), sequence (P27361 whole entry, looked up): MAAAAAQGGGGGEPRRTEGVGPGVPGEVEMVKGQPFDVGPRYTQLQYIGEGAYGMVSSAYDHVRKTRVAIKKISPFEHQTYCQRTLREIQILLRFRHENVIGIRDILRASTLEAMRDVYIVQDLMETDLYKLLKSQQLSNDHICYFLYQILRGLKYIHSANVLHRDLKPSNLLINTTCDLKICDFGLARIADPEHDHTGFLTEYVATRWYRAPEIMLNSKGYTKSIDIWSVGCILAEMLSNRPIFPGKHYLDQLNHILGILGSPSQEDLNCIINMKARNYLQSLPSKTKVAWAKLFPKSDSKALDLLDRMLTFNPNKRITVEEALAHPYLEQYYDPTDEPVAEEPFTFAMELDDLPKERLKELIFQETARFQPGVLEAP
Mitogen-activated protein kinase; ERK1/ERK2 (Homo sapiens), sequence (P28482 whole entry, looked up): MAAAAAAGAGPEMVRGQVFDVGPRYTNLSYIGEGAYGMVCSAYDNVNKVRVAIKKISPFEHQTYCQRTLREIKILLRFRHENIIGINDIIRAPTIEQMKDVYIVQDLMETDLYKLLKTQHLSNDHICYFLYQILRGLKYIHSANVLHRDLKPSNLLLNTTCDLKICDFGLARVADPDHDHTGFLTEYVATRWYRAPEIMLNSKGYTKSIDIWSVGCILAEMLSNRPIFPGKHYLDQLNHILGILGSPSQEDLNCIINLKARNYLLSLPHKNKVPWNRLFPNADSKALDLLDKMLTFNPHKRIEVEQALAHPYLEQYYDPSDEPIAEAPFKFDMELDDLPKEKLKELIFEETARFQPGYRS
Proto-oncogene tyrosine-protein kinase Src (Homo sapiens), sequence (P12931 2-536 limits assumed): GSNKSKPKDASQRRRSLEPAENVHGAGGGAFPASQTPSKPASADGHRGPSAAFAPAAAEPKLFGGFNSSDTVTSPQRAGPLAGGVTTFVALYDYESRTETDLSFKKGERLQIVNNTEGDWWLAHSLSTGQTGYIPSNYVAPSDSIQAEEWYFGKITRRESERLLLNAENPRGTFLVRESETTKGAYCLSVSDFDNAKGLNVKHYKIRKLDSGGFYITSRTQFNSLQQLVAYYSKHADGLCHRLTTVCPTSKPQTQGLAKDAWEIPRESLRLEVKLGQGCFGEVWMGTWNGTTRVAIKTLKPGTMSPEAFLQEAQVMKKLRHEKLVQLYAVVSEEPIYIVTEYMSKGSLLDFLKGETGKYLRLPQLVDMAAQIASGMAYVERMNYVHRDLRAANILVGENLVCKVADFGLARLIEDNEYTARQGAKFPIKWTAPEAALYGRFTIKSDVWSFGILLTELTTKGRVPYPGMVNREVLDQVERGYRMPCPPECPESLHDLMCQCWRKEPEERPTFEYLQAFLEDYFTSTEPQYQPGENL

C[C@H]1CC[C@@]2(OC1)O[C@H]1C[C@H]3[C@@H]4CC[C@@H]5C[C@@H](O[C@@H]6O[C@H](CO)[C@@H](O)[C@H](O)[C@H]6O[C@@H]6O[C@H](CO)[C@@H](O)[C@H](O)[C@H]6O)CC[C@]5(C)[C@H]4CC[C@]3(C)[C@H]1[C@@H]2C
Activity (A549 [1]): 74.8% | Activity (A549 [2]): 11.2% | Activity (A549 [3]): 0% | inhibition [4]: Active | inhibition [5]: Active | inhibition (NCI-H1299 [6]): Active | Activity (A549 [7]): 14% | inhibition (A549 [8]): Active | Activity (A549 [9]): 16.6% | inhibition (NCI-H1299 [10]): Active | Activity (A549 [11]): 54.15% | inhibition (NCI-H1299 [12]): Active | Activity (A549 [13]): 29.25% | inhibition [14]: inactive | inhibition [15]: Active | Survival (A549 [16]): <50% | inhibition [17]: Active | inhibition (A549 [18]): Active | inhibition [19]: Active | inhibition [20]: Dose-dependent effect | inhibition [21]: inactive | inhibition [22]: Active | inhibition (NCI-H1299 [23]): Active | inhibition [24]: Active | inhibition (A549 [25]): Active | inhibition (A549 [26]): Dose-dependent effect
